Series [1] has as its target T1, Mineralocorticoid receptor (Homo sapiens, UniProt P08235).
T1 sequence (P08235 whole entry): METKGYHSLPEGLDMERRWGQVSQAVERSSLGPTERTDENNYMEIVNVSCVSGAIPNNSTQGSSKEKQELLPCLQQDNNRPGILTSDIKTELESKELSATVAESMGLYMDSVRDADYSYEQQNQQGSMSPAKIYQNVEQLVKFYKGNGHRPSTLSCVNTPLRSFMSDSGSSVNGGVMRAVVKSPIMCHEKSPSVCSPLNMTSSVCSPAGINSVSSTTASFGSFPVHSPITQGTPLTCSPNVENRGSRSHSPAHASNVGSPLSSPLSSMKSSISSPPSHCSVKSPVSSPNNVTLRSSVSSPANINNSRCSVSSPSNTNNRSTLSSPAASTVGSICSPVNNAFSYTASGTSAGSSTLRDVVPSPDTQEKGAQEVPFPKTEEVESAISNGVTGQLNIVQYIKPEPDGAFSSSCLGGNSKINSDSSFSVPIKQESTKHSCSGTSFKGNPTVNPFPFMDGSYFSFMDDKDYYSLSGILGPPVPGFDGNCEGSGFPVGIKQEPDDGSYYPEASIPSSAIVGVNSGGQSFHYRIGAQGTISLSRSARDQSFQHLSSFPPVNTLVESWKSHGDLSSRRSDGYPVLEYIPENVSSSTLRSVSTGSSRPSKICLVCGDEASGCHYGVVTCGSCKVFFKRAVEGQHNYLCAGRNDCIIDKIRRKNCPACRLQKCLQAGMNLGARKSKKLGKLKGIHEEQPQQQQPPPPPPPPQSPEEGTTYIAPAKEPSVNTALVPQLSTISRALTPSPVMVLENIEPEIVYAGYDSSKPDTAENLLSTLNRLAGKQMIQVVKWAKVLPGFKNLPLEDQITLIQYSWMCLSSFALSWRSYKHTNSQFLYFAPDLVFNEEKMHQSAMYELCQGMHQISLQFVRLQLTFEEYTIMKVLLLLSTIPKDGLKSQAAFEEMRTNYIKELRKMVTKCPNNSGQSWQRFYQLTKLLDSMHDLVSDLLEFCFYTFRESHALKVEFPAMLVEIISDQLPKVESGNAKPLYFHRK
Nature of the series: Agonist activity at human MR expressed in CHO-K1 cells assessed as increase in protein interaction between MR and its coactivator SRC at 5 uM incubated for 24 hrs by beta-galactosidase based chemiluminescence assay. It counts as cell-based. To be noted: cho-k1, 24 h.

Series [2] in a line: Cmax in mouse at 5 mg/kg, po. Type of series: ADME, organism-based. To be noted: in vivo. More on the design: dose 5 mg/kg, route oral.
A short description of series [3]: Oral bioavailability in mini pig at 10 mg/kg. Type of series: ADME, organism-based, Sus scrofa. To be noted: in vivo.
Series [4] concerns the target T1, Mineralocorticoid receptor. Kind of series: Antagonist activity at human MR expressed in CHO-K1 cells assessed as reduction in aldosterone-induced protein interaction between MR and its coactivator SRC at 5 uM incubated for 24 hrs by beta-galactosidase based chemiluminescence assay. It counts as cell-based. To be noted: cho-k1, 24 h.
The target in a further series is T2, Androgen receptor (Homo sapiens, UniProt P10275).
T2 sequence (P10275 whole entry): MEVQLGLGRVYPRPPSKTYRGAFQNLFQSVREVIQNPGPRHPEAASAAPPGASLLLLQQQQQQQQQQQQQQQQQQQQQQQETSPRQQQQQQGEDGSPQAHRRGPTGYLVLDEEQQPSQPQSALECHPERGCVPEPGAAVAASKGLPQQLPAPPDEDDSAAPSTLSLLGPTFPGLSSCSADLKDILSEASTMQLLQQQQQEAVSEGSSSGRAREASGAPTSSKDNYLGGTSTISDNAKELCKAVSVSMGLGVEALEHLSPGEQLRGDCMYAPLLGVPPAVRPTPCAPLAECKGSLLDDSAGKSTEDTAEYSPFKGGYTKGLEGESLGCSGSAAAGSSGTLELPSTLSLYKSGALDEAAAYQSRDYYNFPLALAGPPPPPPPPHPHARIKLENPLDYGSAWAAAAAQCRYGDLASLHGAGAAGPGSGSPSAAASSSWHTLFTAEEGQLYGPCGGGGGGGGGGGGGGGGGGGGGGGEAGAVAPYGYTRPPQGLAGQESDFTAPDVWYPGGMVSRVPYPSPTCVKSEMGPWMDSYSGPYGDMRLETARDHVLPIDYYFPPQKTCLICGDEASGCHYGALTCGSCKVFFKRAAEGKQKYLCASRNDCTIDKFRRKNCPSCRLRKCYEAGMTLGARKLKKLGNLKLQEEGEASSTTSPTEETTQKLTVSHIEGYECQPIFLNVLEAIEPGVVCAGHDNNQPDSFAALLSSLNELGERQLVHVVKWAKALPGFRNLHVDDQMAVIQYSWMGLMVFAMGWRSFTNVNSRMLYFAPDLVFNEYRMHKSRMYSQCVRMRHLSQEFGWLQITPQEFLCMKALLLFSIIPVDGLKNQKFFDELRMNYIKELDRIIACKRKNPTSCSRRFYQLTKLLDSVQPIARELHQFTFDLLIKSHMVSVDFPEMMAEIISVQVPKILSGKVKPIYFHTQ
Nature of the series: Agonist activity at AR in human MDA-MB-453 cells assessed as increase in SEC14L2 gene expression at 111 to 333 nM incubated for 24 hrs by RT-qPCR method. Type of series: cell-based. To be noted: mda-mb-453, 24 h, 0.333 µM.

The values below come from ChEMBL document CHEMBL4145686, “Discovery of a Potent and Selective Steroidal Glucocorticoid Receptor Antagonist (ORIC-101)” (J Med Chem, 2018).

What is called Cmax is the highest concentration seen after dosing. As usually defined, the bioavailability is the share of a dose that reaches the circulation, judged against a reference dose that is usually intravenous. Higher therefore signals much systemic uptake. As for `CC(C)N(C)c1ccc([C@H]2C[C@@]3(C)[C@@H](CC[C@@]3(O)C#CC(C)(C)C)[C@@H]3CCC4=CC(=O)CC[C@@H]4[C@H]32)cc1`, the Activity result (in series [1]; on Androgen receptor) was “Not Active” each time. In series [2], this molecule gave a Cmax of 274 ng/mL. In series [3], the bioavailability came out at 20%. In addition, the “inhibition (INH)” value in series [4] was “Not Active”.
